Format in all cases: functional
For assay [1], the system named is Escherichia coli. Briefly: Antimicrobial activity against Escherichia coli isolate 7014517 with AmpC beta-lactamase 295 Ins LAA mutation.
In assay [2] the test system is Escherichia coli. Briefly: Antimicrobial activity against Escherichia coli Top10.
Assay [3] has as its system Escherichia coli. Description: Antimicrobial activity against AmpC producing Escherichia coli Top10 isolate 7014517.
The subject of assay [4] is Escherichia coli. Briefly: Antimicrobial activity against Escherichia coli isolate 7010738 with AmpC beta-lactamase H296P mutation.
The test system of assay [5] is Escherichia coli. Briefly: Antimicrobial activity against Escherichia coli isolate 5000869 with AmpC beta-lactamase H296P mutation.
Assay [6] has as its system Escherichia coli. Briefly: Antimicrobial activity against AmpC producing Escherichia coli Top10 isolate 8009162.
For assay [7], the system named is Escherichia coli. Description: Antimicrobial activity against Escherichia coli isolate 8009162 with AmpC beta-lactamase A292V mutation.
Assay [8] deals with Escherichia coli. Briefly: Antimicrobial activity against AmpC producing Escherichia coli Top10 isolate 25922.
Assay [9] deals with Escherichia coli. Description: Antimicrobial activity against Escherichia coli isolate 7001178 with AmpC beta-lactamase S287N mutation.
Assay [10] has as its system Escherichia coli. Briefly: Antimicrobial activity against Escherichia coli isolate 8009989 with AmpC beta-lactamase H296P mutation.
The test system of assay [11] is Escherichia coli. Briefly: Antimicrobial activity against Escherichia coli isolate 7008710 with AmpC beta-lactamase S287N mutation.
In assay [12] the test system is Escherichia coli. Description: Antimicrobial activity against wild-type AmpC producing Escherichia coli ATCC 25922.
The test system of assay [13] is Escherichia coli. Briefly: Antimicrobial activity against Escherichia coli isolate 4009273 with AmpC beta-lactamase S287N mutation.
The subject of assay [14] is Escherichia coli. Briefly: Antimicrobial activity against Escherichia coli isolate 7008211 with AmpC beta-lactamase H296P mutation.
For assay [15], the system named is Escherichia coli. Briefly: Antimicrobial activity against Escherichia coli isolate 8009162 AmpC with A292V mutation.
Assay [16] relates to Escherichia coli. Description: Antimicrobial activity against Escherichia coli isolate 7008153 with AmpC beta-lactamase H296P mutation.
For assay [17], the system named is Escherichia coli. Briefly: Antimicrobial activity against Escherichia coli isolate 7014517 AmpC with LAA insertion at position 295.
Assay [18] relates to Escherichia coli. Briefly: Antimicrobial activity against Escherichia coli isolate 8009389 with AmpC beta-lactamase H296P mutation.

The values that follow come from ChEMBL document CHEMBL1255418, “Occurrence of ST23 complex phylogroup A Escherichia coli isolates producing extended-spectrum AmpC beta-lactamase in a French hospital” (2010).

Values after ≈ are worked out from the molar mass of the structure shown.

As for `CO/N=C(\C(=O)N[C@@H]1C(=O)N2C(C(=O)O)=C(COC(C)=O)CS[C@H]12)c1csc(N)n1` [CEFOTAXIME], the minimal inhibitory concentration (MIC) – broadly, the smallest concentration in the dilution series that meets the test's criterion for growth inhibition – in the assay on Escherichia coli [1] is 16 µg/mL (≈ 35.1 µM); against Escherichia coli [2], < 0.06 µg/mL; with Escherichia coli [3], 32 µg/mL (≈ 70.3 µM); in the assay on Escherichia coli [4], 8 µg/mL (≈ 17.6 µM); in the assay with Escherichia coli [5], 4 µg/mL (≈ 8.78 µM); with Escherichia coli [6], 12 µg/mL (≈ 26.3 µM). For the same molecule, the MIC is 8 µg/mL (≈ 17.6 µM) in the assay on Escherichia coli [7]; 0.75 µg/mL (≈ 1.65 µM) against Escherichia coli [8]; 8 µg/mL (≈ 17.6 µM) in the assay on Escherichia coli [9]; 8 µg/mL (≈ 17.6 µM) against Escherichia coli [10]; 16 µg/mL (≈ 35.1 µM) against Escherichia coli [11]; < 0.06 µg/mL against Escherichia coli [12]. The minimum inhibitory concentration (MIC) in the assay with Escherichia coli [13] amounted to 8 µg/mL (≈ 17.6 µM); against Escherichia coli [14], 8 µg/mL (≈ 17.6 µM); in the assay with Escherichia coli [15] it was 8 µg/mL (≈ 17.6 µM); in the assay with Escherichia coli [16], 16 µg/mL (≈ 35.1 µM); with Escherichia coli [17], 16 µg/mL (≈ 35.1 µM); against Escherichia coli [18], 8 µg/mL (≈ 17.6 µM).

In the case of `CO/N=C(\C(=O)N[C@@H]1C(=O)N2C(C(=O)[O-])=C(C[N+]3(C)CCCC3)CS[C@H]12)c1csc(N)n1` [CEFEPIME], the MIC against Escherichia coli [1] was 8 µg/mL (≈ 16.6 µM); in the assay on Escherichia coli [2], < 0.06 µg/mL; against Escherichia coli [3] it was 4 µg/mL (≈ 8.32 µM); against Escherichia coli [4], 8 µg/mL (≈ 16.6 µM); in the assay on Escherichia coli [5] it was 4 µg/mL (≈ 8.32 µM); in the assay on Escherichia coli [6], 0.75 µg/mL (≈ 1.56 µM). In addition, the MIC against Escherichia coli [7] is 0.75 µg/mL (≈ 1.56 µM); in the assay on Escherichia coli [8], 0.06 µg/mL (≈ 0.125 µM); in the assay on Escherichia coli [9], 2 µg/mL (≈ 4.16 µM); in the assay with Escherichia coli [10], 8 µg/mL (≈ 16.6 µM); with Escherichia coli [11] it was 8 µg/mL (≈ 16.6 µM); in the assay on Escherichia coli [12], < 0.06 µg/mL. Further, the minimal inhibitory concentration (MIC) against Escherichia coli [13] amounted to 4 µg/mL (≈ 8.32 µM); against Escherichia coli [14], 16 µg/mL (≈ 33.3 µM); against Escherichia coli [15], 0.75 µg/mL (≈ 1.56 µM); against Escherichia coli [16] it was 16 µg/mL (≈ 33.3 µM); against Escherichia coli [17] it was 8 µg/mL (≈ 16.6 µM); with Escherichia coli [18], 16 µg/mL (≈ 33.3 µM).

On to `CC(C)(O/N=C(\C(=O)N[C@@H]1C(=O)N2C(C(=O)[O-])=C(C[n+]3ccccc3)CS[C@H]12)c1csc(N)n1)C(=O)O` [CEFTAZIDIME], for which the MIC with Escherichia coli [1] is ≥ 64 µg/mL; in the assay with Escherichia coli [2], < 0.06 µg/mL; in the assay on Escherichia coli [3], > 256 µg/mL; in the assay with Escherichia coli [4] it was ≥ 64 µg/mL; against Escherichia coli [5], ≥ 64 µg/mL; against Escherichia coli [6], > 256 µg/mL. For the same molecule, the minimal inhibitory concentration (MIC) was ≥ 64 µg/mL against Escherichia coli [7]; 4 µg/mL (≈ 7.32 µM) against Escherichia coli [8]; ≥ 64 µg/mL in the assay with Escherichia coli [9]; ≥ 64 µg/mL with Escherichia coli [10]; ≥ 64 µg/mL against Escherichia coli [11]; 0.09 µg/mL (≈ 0.165 µM) against Escherichia coli [12]. Also, the minimum inhibitory concentration (MIC) was ≥ 64 µg/mL against Escherichia coli [13]; ≥ 64 µg/mL against Escherichia coli [14]; 64 µg/mL (≈ 117 µM) in the assay on Escherichia coli [15]; ≥ 64 µg/mL with Escherichia coli [16]; 64 µg/mL (≈ 117 µM) with Escherichia coli [17]; ≥ 64 µg/mL in the assay with Escherichia coli [18].
